These results are taken from PubChem BioAssay (NCI).

Each structure is given as a SMILES string. Where “and” joins values, the source holds several entries; their conditions need not be identical. Identical values can stand only once.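 Five compound concentrations were applied to cells in 96-well plates for 48 hours; endpoints were derived by simple linear interpolation of the resulting dose-response curve. GI50: concentration for 50% inhibition of growth. Definition used: TGI = concentration required for complete inhibition of growth.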

The subject of one test is ACHN renal. The experiment in a line: NCI-60 cell line screen, 48 h.
Regarding `COc1ccc(/C=C/c2n(Cc3ccc4ccccc4c3)c3ccccc3[n+]2Cc2ccc3ccccc3c2)cc1`, the GI50 is 1120 nM and the TGI is 2320 nM.

A further test concerns HL-60(TB) leukemia. The experiment in a line: NCI-60 cell line screen, 48 h.
Regarding `COc1ccc(/C=C/c2n(Cc3ccc4ccccc4c3)c3ccccc3[n+]2Cc2ccc3ccccc3c2)cc1`, the GI50 is 268 nM and the TGI was 993 nM.

The subject of a further test is HS 578T breast. The experiment in a line: NCI-60 cell line screen, 48 h.
On to `COc1ccc(/C=C/c2n(Cc3ccc4ccccc4c3)c3ccccc3[n+]2Cc2ccc3ccccc3c2)cc1`, for which the GI50 was 583 nM and the TGI turned out to be 2850 nM.

A further test has as its system MDA-MB-468 breast. The experiment in a line: NCI-60 cell line screen, 48 h.
Regarding `CCCCN(CCCC)CCCN=c1nc2c(c(N)n1-c1ccccc1)c(=S)n(-c1ccccc1)c(=S)n2-c1ccccc1`, the GI50 was 218 nM and the TGI was 518 nM.
In the case of `C/C(=C\CCc1ccoc1)CC/C=C(\C)CCCN1CCC(CO)CC1`, the GI50 was 1700 nM and the TGI was 4450 nM.
The corresponding values for `COc1c(CNC(=O)CCl)cc2[nH]c(C)cc2c1CNC(=O)CCl` are 5940 nM and 25900 nM.
The like results for `Cc1cc(-c2nc(-c3ccc(OC(F)(F)F)cc3)no2)nn1Cc1ccnc(N2CCN(C3CC3)CC2)c1` were, in that order, less than 10 nM and 5680 nM.
The corresponding values for `CCN(CC)CCCC(Nc1c2ccc(Cl)cc2nc2ccc(OC)cc12)c1ccc(F)cc1` (configuration not stated) are 1650 nM and 3220 nM.
On to `O=C1/C(=C\c2coc3ccccc3c2=O)c2ccccc2N1c1c(Cl)cccc1Cl`, for which the GI50 was 2440 nM and the TGI is 13100 nM.
The like results for `N#Cc1cccc(NC(=O)c2oc3ccccc3c2-c2cnn(-c3ccccc3)c2)c1` were, in that order, 406000 nM and greater than 500000 nM.
The corresponding values for `c1ccc(-c2nn(-c3ccccc3)[n+](-c3cccc4ccccc34)n2)cc1` are 265 nM and 1770 nM.
For `CN(C)CCCNc1nccc(-c2c(-c3ccc(F)cc3)nn3cc(C(F)(F)F)ccc23)n1`, the GI50 was 3030 nM and the TGI was found to be 7350 nM.
The corresponding values for `COc1cc([C@@H]2c3cc4c(cc3[C@H](O)[C@H]3COC(=O)[C@H]23)OCO4)cc(OC)c1OC` are less than 10 nM and less than 10 nM.
The corresponding values for `COc1ccc(/C=C/c2cc(N3CCOCC3)c3cc(F)c(F)cc3n2)cc1OC` are 277 nM and 1640 nM.
The corresponding values for `COc1cccc(C2C3=C(COC3=O)N(CCO)c3cc4c(cc32)OCCO4)c1` (configuration not stated) are 68.4 nM and 1270 nM.
For `N#Cc1c(NC(=O)CN2CCOCC2)sc2c1CCCC2`, the GI50 was greater than 21700 nM and the TGI is greater than 25000 nM.
The corresponding values for `COc1cc(C2CC(c3cc(C)ccc3C)=NN2c2ccc(S(=O)(=O)NC(=O)NCc3ccccc3)cc2)cc(OC)c1OC` (configuration not stated) are 2320 nM and 5530 nM.
The like results for `C=C1CCC2C3(C)COC(c4ccc(SC)cc4)OC3CCC2(C)C1C/C=C1/C(=O)OCC1O` (configuration not stated) were, in that order, 5340 nM and 18300 nM.
The like results for `Cn1cc(C[C@@H](N)C(=O)O)c2ccccc21` were, in that order, greater than 100000 nM and greater than 100000 nM.
As to `N#Cc1c(-c2ccccc2)cc(-c2ccccc2)n(CCCCC(=O)NO)c1=O`, the GI50 was 2510 nM and the TGI is 11800 nM.
For the molecule `CC(=O)OC[C@]12CC[C@@H]([C@@H](C)C(N)=O)[C@@H]1[C@H]1CC[C@@H]3[C@@]4(C)CC[C@H](OC(C)=O)C(C)(C)[C@@H]4CC[C@@]3(C)[C@]1(C)CC2`, the GI50 was 3960 nM and the TGI came out at 15600 nM.
Consider `C#COc1cccc(Nc2ncnc3ncc(NC(=O)CCl)cc23)c1`, for which the GI50 was greater than 35400 nM and the TGI was greater than 62500 nM.
On to `N#CN1CCC[C@H]1C(=O)N1CCc2c(-c3[nH]nc4ncccc34)cccc21`, for which the GI50 is less than 10 nM and the TGI was less than 10 nM.
With `COC(=O)[C@H](CC(C)C)NC(=O)NC(=O)NC(=O)CI`, the GI50 was 1970 nM and the TGI amounted to 4240 nM.
Take `COc1ccc(/C=C\c2cc(OC)c(OC)c(OC)c2)cc1OC(=O)c1cccc(Cn2cc(CCOC(=O)c3cccc(Cn4nnc5c4C(=O)c4ccccc4C5=O)c3)nn2)c1`: the GI50 was less than 13.8 nM.
For the molecule `N#Cc1c(-c2ccc(Cl)cc2)nc(SCc2ccc(F)cc2)nc1N1CCNCC1`, the GI50 is 1470 nM and the TGI amounted to 2880 nM.
The corresponding values for `CCCN(CCC)CCCNC(=O)c1cc2c(-c3ccc(OC)c(OC)c3)nn(C)c2s1` are 14000 nM and 34500 nM.
The like results for `CC1=C(/C=C/C(C)=C/C=C/C(C)=C/C(=O)Nc2ccc(O)cc2)C(C)(C)CCC1` were, in that order, 2220 nM and 8410 nM.
As to `CNc1ccc(-c2cc(=O)oc3ccc(Cl)cc23)cc1`, the GI50 was 219 nM and 84.1 nM; the TGI was 926 nM and 877 nM.
For the molecule `CCO/C=N/C1=C(C#N)C(c2ccc(F)cc2)c2sc3c(CC)cccc3c2O1` (configuration not stated), the GI50 is 421 nM and the TGI amounted to 16000 nM.
The like results for `C=CCN(/C=C1\C(=O)O[C@H](COC)[C@@]2(C)C1=C(O)C(=O)C1=C2[C@H](OC(C)=O)C[C@]2(C)C(=O)CC[C@@H]12)CC=C` were, in that order, 77.8 nM and 649 nM.
The like results for `CN1CCN(Cc2ccc(NC(=O)c3ccc(C#N)c(C#Cc4cnc(N)c5ncccc45)c3)cc2C(F)(F)F)CC1` were, in that order, 16900 nM and 63500 nM.
Consider `CC[C@@H](C(=O)[C@@H](C)[C@@H](O)[C@H](C)[C@@H]1O[C@@H]([C@@H](CC)C(=O)O)CC[C@@H]1C)[C@H]1OC2(C=C[C@@H](O)[C@]3(CC[C@@](C)([C@H]4CC[C@](O)(CC)[C@H](C)O4)O3)O2)[C@H](C)C[C@@H]1C` (some centres not stated), for which the GI50 was 150 nM and the TGI was found to be 1950 nM.
The corresponding values for `COc1ccc(-c2cc(/C=C3\C(=O)Nc4ccc(OC)cc43)[nH]n2)cc1` are 3710 nM and greater than 100000 nM.
The corresponding values for `Oc1cc(O)c2c(=S)cc(-c3ccc(Cl)cc3)oc2c1` are 260 nM and 3100 nM.
The corresponding values for `COc1ccc(-c2nn(-c3cccc(NC(=O)Nc4cc(C(F)(F)F)cc(C(F)(F)F)c4)c3)cc2-c2ccncc2)cc1Cl` are 641 nM and 2890 nM.
Take `CC1=C([Se]CC(OC(=O)[C@@H](CO)NC(=O)OC(C)(C)C)C(=O)NC(C)(C)C)C(=O)c2ccccc2C1=O` (some centres not stated): the GI50 was 759 nM and the TGI was determined as 2290 nM.
The like results for `COc1ccc(Cc2cnc(NC(=O)c3sc4ccccc4c3Cl)s2)cc1` were, in that order, 416 nM and greater than 100000 nM.
Regarding `COc1ccc(C2=C(c3cc(OC)c(OC)c(OC)c3)C(=O)CC2)cc1`, the GI50 was 67.3 nM.
On to `OC(COc1cccc2ccccc12)CN1CCN(c2ccccc2)CC1` (configuration not stated), for which the GI50 was 16600 nM and the TGI was 31100 nM.
The corresponding values for `Clc1ccc(-c2nn3ncccc3c2-c2ccnc(Nc3ccccc3)n2)cc1` are 1190 nM and 9630 nM.
The corresponding values for `COc1cc([C@@H]2c3cc4c(cc3[C@@H](O[C@@H]3O[C@@H]5CO[C@@H](c6cccs6)O[C@H]5[C@H](O)[C@H]3O)[C@H]3COC(=O)[C@H]23)OCO4)cc(OC)c1O` are 186 nM and 537 nM.
The like results for `Nc1ccccc1NC(=O)c1ccc(CN2CCC/C(=C\c3cccc(Cl)c3)C2=O)cc1` were, in that order, 63.6 nM and 5900 nM.
As for `COC(=O)Nc1nc2cc3c(cc2s1)OCCO3`, the GI50 was 29200 nM and the TGI was greater than 50000 nM.
The like results for `CNC(C)C(=O)N[C@H](C(=O)N1CCC[C@@H]1CN(CCc1ccccc1)C(=O)C(F)(F)F)[C@H](C)OCC#CC#CCO[C@H](C)[C@H](NC(=O)[C@H](C)NC)C(=O)N1CCC[C@H]1CN(CCc1ccccc1)C(=O)C(F)(F)F` (some centres not stated) were, in that order, less than 10 nM and 22.1 nM.
In the case of `CCOc1ccc(/C=C/[N+](=O)[O-])cc1`, the GI50 is 1970 nM and the TGI came to 3970 nM.
The corresponding values for `C#CCNC(=O)CC[C@]1(C)[C@H]2CC[C@@H]3[C@@H]([C@@](C)(O)CCC=C(C)C)CC[C@@]3(C)[C@]2(C)CC[C@H]1C(=C)C` are 33600 nM and greater than 100000 nM.
The like results for `CC[CH2][Sn]([Cl])([Cl])[CH2]CC` were, in that order, 1920 nM and 6960 nM.
Turning to `CC[C@H](C)n1cc(C)c2c(C(=O)NCc3c(C)cc(C)[nH]c3=O)cc(-c3ccc(N4CCNCC4)nc3)cc21`, the GI50 is 2150 nM and 5090 nM; the TGI is 7630 nM and 18700 nM.
`Cc1nc(/N=C(\N)NC(=O)Nc2ccccc2Cl)sc1C`: the GI50 is 459 nM and the TGI worked out at 4670 nM.
Regarding `O=C1/C(=C/c2ccccc2)CCC/C1=C\c1ccccc1`, the GI50 is 3120 nM and the TGI was determined as 19400 nM.
The like results for `COC(=O)[C@@]1(C)CC[C@]2(C)CC[C@]3(C)C4=CC=C5C(=CC(=O)C(O)=C5C)[C@]4(C)CC[C@@]3(C)[C@@H]2C1` were, in that order, 165 nM and 359 nM.

The subject of a further test is NCI/ADR-RES ovarian. The experiment in a line: NCI-60 cell line screen, 48 h.
Turning to `COc1ccc(/C=C/c2n(Cc3ccc4ccccc4c3)c3ccccc3[n+]2Cc2ccc3ccccc3c2)cc1`, the GI50 was 2110 nM and the TGI came to 5430 nM.

A further test concerns OVCAR-5 ovarian. The test can be described thus: NCI-60 cell line screen, 48 h.
On to `COc1ccc(/C=C/c2n(Cc3ccc4ccccc4c3)c3ccccc3[n+]2Cc2ccc3ccccc3c2)cc1`, for which the GI50 was 828 nM and the TGI worked out at 2110 nM.

For another test, the system named is RXF 393 renal. The experiment in a line: NCI-60 cell line screen, 48 h.
Regarding `COc1ccc(/C=C/c2n(Cc3ccc4ccccc4c3)c3ccccc3[n+]2Cc2ccc3ccccc3c2)cc1`, the GI50 is 377 nM and the TGI was found to be 1590 nM.

A further test has as its system SK-MEL-28 melanoma. The experiment in a line: NCI-60 cell line screen, 48 h.
In the case of `COc1ccc(/C=C/c2n(Cc3ccc4ccccc4c3)c3ccccc3[n+]2Cc2ccc3ccccc3c2)cc1`, the GI50 was 818 nM and the TGI is 2080 nM.

Another test concerns SNB-75 CNS. The test can be described thus: NCI-60 cell line screen, 48 h.
Take `COc1ccc(/C=C/c2n(Cc3ccc4ccccc4c3)c3ccccc3[n+]2Cc2ccc3ccccc3c2)cc1`: the GI50 is 150 nM and the TGI stood at 1480 nM.
